Assay results reported in patent publication US7687473B2, “5-amino-4-imidazolecarboxamide riboside and its nucleobase as potentiators of antifolate transport and metabolism” (Health Research, Inc., priority 2005, dated 2010).
Like-named read-outs stand apart in the source and are kept apart here. Values belong to the compound of their own block, whether it stands above or below them.

How the values were obtained:
[1] = target: T1, reduced folate carrier (RFC) (Homo sapiens, UniProt P41440); experiment: Inhibition of initial velocity of [3H]MTX influx by competitors; format: cell-based; details: for IC50: IC50, inhibition of initial velocity of [3H]MTX influx
T1 construct: endogenous in cells; host or cells: CCRF-CEM (parental)
T1 sequence (P41440 1-591): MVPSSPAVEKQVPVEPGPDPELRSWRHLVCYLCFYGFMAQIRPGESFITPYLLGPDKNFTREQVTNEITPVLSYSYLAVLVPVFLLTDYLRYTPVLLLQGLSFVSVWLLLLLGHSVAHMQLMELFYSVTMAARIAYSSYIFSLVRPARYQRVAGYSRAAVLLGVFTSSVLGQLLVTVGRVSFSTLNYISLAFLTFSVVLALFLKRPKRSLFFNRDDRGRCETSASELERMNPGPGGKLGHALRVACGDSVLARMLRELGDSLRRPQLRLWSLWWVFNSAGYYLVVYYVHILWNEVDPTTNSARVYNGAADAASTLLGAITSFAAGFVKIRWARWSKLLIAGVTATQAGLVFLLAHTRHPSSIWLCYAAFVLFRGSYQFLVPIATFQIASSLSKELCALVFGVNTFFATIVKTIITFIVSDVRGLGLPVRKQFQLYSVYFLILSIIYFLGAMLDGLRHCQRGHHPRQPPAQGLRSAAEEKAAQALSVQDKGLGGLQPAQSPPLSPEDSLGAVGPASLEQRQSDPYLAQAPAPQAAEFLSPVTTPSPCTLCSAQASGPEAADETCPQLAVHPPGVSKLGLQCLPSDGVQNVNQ
Procedure: Duplicate samples were removed at 5 min and processed as described above.
Inhibition of the vi of uptake was measured after pre-incubation of CCRF-CEM cells either with TMTX alone (measuring inhibition at the RFC) or with TMTX+Z (measuring inhibition during Z potentiation). […] All studies were carried out in standard transport medium. Inhibitory potency was measured in two series of experiments and AMT was included in each series as an internal control. Values are average±range of two determinations. […] Values are average±range for duplicate determinations.

CCRF-CEM cells [2] = experiment: [3H]leucovorin uptake in CCRF-CEM cells; format: cell-based, human
Procedure: (§1) Quantitation of folate and antifolate uptake. The method is essentially as follows. Briefly, logarithmically growing (3-5×10^5/ml) CCRF-CEM cells were harvested at room temperature by centrifugation at 1000×g for 5 min. After washing with the appropriate medium, cells were suspended at ≈2×10^7 cells/ml for use in transport studies. […] Anion-free MHS contains 250 mM sucrose and 20 mM HEPES, titrated to pH 7.4 with MgO. […] Uptake was measured as a function of time for 30 min (for rate and extent measurements) or over 5 min (studies requiring initial velocities). […] Uptake was terminated by diluting 100 μL samples into 1 ml of iced 0.9% NaCl. […] The supernatant was aspirated. The cell pellet was washed once with 1 ml iced 0.9% NaCl and centrifuged as above. The washed pellet was solubilized in 1 ml of 0.3% Triton X-100 by incubation for 60 min at 37° C. The solubilized pellet was transferred to a scintillation vial, 10 ml of Liquiscint (National Diagnostics, Atlanta, Ga.) was added and radioactivity was quantitated in a Beckman Model LS6500 liquid scintillation counter. Separate samples at the longest incubation time used in a particular experiment were harvested for HPLC analysis of intracellular contents as above, except that after the second wash the pellets were extracted with 1 ml boiling 0.1 M Na-phosphate, pH 5.5. The extract was clarified by centrifugation and the supernatant was filtered through an MPS-1 filter unit (Amicon) prior to HPLC analysis.

CCRF-CEM cells [3] = experiment: cells; format: cell-based, human
Procedure: Inhibition of growth of human cell lines in vitro. Inhibition of growth of CCRF-CEM in continuous and intermittent drug exposures was measured. EC50 values were determined from plots of percent control growth versus the logarithm of drug concentration.
[…]; n=2). […]; n=2). Values presented are average±S.D. for n>2 and average±range for n=2. […] […]; EC50 data may therefore underestimate the biological potency.

CCRF-CEM cells [4] = experiment: [3H]MTX uptake (initial velocity and 30 min accumulation) in CCRF-CEM cells; format: cell-based, human; details: for Potentiation of [3H]MTX uptake at 30 min: compound at 0.5 mM, 10 min pre-incubation with TMTX
Procedure: as §1

CCRF-CEM cells [5] = experiment: Accumulation of DDATHF polyglutamates in CCRF-CEM cells; format: cell-based, human; details: for DDATHF-Glun, N = 1 / DDATHF-Glun, N = 2 / DDATHF-Glun, N = 3 / DDATHF-Glun, N = 4 / DDATHF-Glun, N = 5 / DDATHF-Glun, N = 6 / DDATHF-Glun, Total / DDATHF-Glun, Total N ≧ 3: 4 hr, 1 μM [3H]DDATHF
Procedure: At the end of the exposure cells were rapidly chilled to 4 degrees C., harvested by centrifugation at 1000×g for 5 min, washed twice with iced 0.9% NaCl by centrifugation in the same manner. One mL of boiling 50 mM Na-phosphate, pH 5.5 was added, the pellet was triturated and the sample boiled for 5 min. The sample was rapidly cooled to 4 degrees C. Debris was removed by centrifugation as above. The supernatant was further clarified by centrifugation through an Amicon MPS-1 filter unit. […] A suitable volume was injected onto a reversed-phase HPLC column (C18) and eluted with a gradient of from 4-14% acetonitrile over about 43 min. One min fractions were collected and, after addition of 10 ml scintillation fluid, were quantitated by liquid scintillation counting. […]

[6] = +TMTX + Z, 10 min pre-incubation with 1 μM TMTX and 0.5 mM Z (Z potentiated influx)
[7] = +TMTX, 10 min pre-incubation with 1 μM TMTX alone (inhibition of the RFC)

IC50 [1, 6]: 2700 nM
IC50 [1, 7]: 2600 ± 100 nM
Structure (SMILES): Nc1nc2c(c(=O)[nH]1)N(C=O)[C@H](CNc1ccc(C(=O)N[C@@H](CCC(=O)O)C(=O)O)cc1)CN2 [(6R,S)-LV, [6R,S]-5-formyltetrahydrofolate]

EC50 (CCRF-CEM cells [3]; read-out: EC50 for growth inhibition): 600 nM
Structure (SMILES): Cc1ccc2nc(N)[nH]c(=O)c2c1Sc1ccncc1 [AG337]
Effect on potentiation of LV uptake induced by TMTX+Z (CCRF-CEM cells [2]; 20 μM): completely block
Potentiation of [3H]LV uptake (CCRF-CEM cells [2]; 10 min preincubation at 2 or 20 μM, presence or absence of Z): does not potentiate

Structure (SMILES): NC(=O)NC1NC(=O)NC1=O (stereo not drawn) [ALN, allantoin]
Potentiation of [3H]MTX uptake (CCRF-CEM cells [4]; 500 μM): does not potentiate
Inhibition of potentiation by 500 μM Z (CCRF-CEM cells [4]; up to 100 μM): does not inhibit potentiation

Structure (SMILES): Nc1nc(N)c2nc(CNc3ccc(C(=O)N[C@@H](CCC(=O)O)C(=O)O)cc3)cnc2n1 [AMT, 4-amino-pteroylglutamic acid]
Increase of growth inhibitory potency (EC50) by Z (CCRF-CEM cells [3]; 0-24 hr pulse of 120 hr, 100 μM Z): ≈ 2 fold
EC50 (CCRF-CEM cells [3]; Homo sapiens, CCRF-CEM, drug exposure 0-24/120 hr, [Z] 0 μM, read-out: EC50): 6.1 ± 1.3 nM
EC50 (CCRF-CEM cells [3]; Homo sapiens, CCRF-CEM, drug exposure 0-24/120 hr, [Z] 100 μM, read-out: EC50): 3.7 ± 0.3 nM

Structure (SMILES): Nc1ncnc2c1ncn2[C@@H]1O[C@H](CO)[C@@H](O)[C@H]1O [Adenosine, adenosine]
Ability to potentiate [3H]MTX uptake (CCRF-CEM cells [4]): unable to potentiate
Potentiation of [3H]MTX uptake at 30 min (CCRF-CEM cells [4]): do not potentiate

IC50 [1, 6]: 1300 ± 400 nM
IC50 [1, 7]: 1000 ± 100 nM
Structure (SMILES): Cc1nc2ccc3ccc(CNc4ccc5c(c4)CN([C@@H](CCC(=O)O)C(=O)O)C5=O)cc3c2c(=O)[nH]1 [BW1843U89, (S)-2-(5-(((1,2-dihydro-3-methyl-1-oxobenzo(F)quinazolin-9-yl)methyl)-amino)-1-oxo-2-isoindolinyl)glutaric acid]

Structure (SMILES): Nc1nc2c(c(=O)[nH]1)CC(CCc1ccc(C(=O)N[C@@H](CCC(=O)O)C(=O)O)cc1)CN2 (stereo partly drawn) [DDATHF, 5,10-dideazatetrahydrofolate]
Effect of Z on DDATHF uptake (CCRF-CEM cells [5]; 30 min incubation): no effect of Z was observed
Increase of total drug accumulation by Z (CCRF-CEM cells [5]; 4 hr incubation with 1 μM [3H]DDATHF): 11%
DDATHF-Glun, N = 1 (CCRF-CEM cells [5]; +Z): 17.5 ± 1.3 pmol/10^7 cells
DDATHF-Glun, N = 2 (CCRF-CEM cells [5]; +Z): 5.9 ± 0.1 pmol/10^7 cells
DDATHF-Glun, N = 3 (CCRF-CEM cells [5]; +Z): 10.1 ± 0.1 pmol/10^7 cells
DDATHF-Glun, N = 4 (CCRF-CEM cells [5]; +Z): 15.2 ± 0.8 pmol/10^7 cells
DDATHF-Glun, N = 5 (CCRF-CEM cells [5]; +Z): 29.8 ± 0.3 pmol/10^7 cells
DDATHF-Glun, N = 6 (CCRF-CEM cells [5]; +Z): 33.0 ± 2.3 pmol/10^7 cells
DDATHF-Glun, Total (CCRF-CEM cells [5]; +Z): 111.3 pmol/10^7 cells
DDATHF-Glun, Total N ≧ 3 (CCRF-CEM cells [5]; +Z): 88.0 pmol/10^7 cells
DDATHF-Glun, N = 1 (CCRF-CEM cells [5]; −Z): 14.8 ± 0.8 pmol/10^7 cells
DDATHF-Glun, N = 2 (CCRF-CEM cells [5]; −Z): 4.9 ± 0.8 pmol/10^7 cells
DDATHF-Glun, N = 3 (CCRF-CEM cells [5]; −Z): 9.2 ± 0.9 pmol/10^7 cells
DDATHF-Glun, N = 4 (CCRF-CEM cells [5]; −Z): 13.3 ± 2.1 pmol/10^7 cells
DDATHF-Glun, N = 5 (CCRF-CEM cells [5]; −Z): 28.1 ± 2.1 pmol/10^7 cells
DDATHF-Glun, N = 6 (CCRF-CEM cells [5]; −Z): 30.5 ± 0.9 pmol/10^7 cells
DDATHF-Glun, Total (CCRF-CEM cells [5]; −Z): 100.8 pmol/10^7 cells
DDATHF-Glun, Total N ≧ 3 (CCRF-CEM cells [5]; −Z): 81.1 pmol/10^7 cells

IC50 [1, 6]: 18500 ± 1100 nM
IC50 [1, 7]: 18600 ± 600 nM
Plateau in inhibition of [3H]MTX influx ([1]; observed ±Z, data not shown): 60-70%
Structure (SMILES): Nc1nc2ncc(CNc3ccc(C(=O)N[C@@H](CCC(=O)O)C(=O)O)cc3)nc2c(=O)[nH]1 [PteGlu, folic acid]

Structure (SMILES): NC(=O)c1nc[nH]c1N [Z-base, 5-amino-4-imidazolecarboxamide]
Potentiation of [3H]MTX uptake at 30 min (CCRF-CEM cells [4]): potentiates

Structure (SMILES): Nc1ncnc2nc[nH]c12 [adenine]
Potentiation of [3H]MTX uptake at 30 min (CCRF-CEM cells [4]): do not potentiate

Structure (SMILES): Nc1ncnc2c1ncn2[C@H]1C[C@H](O)[C@@H](CO)O1 [deoxyadenosine]
Potentiation of [3H]MTX uptake at 30 min (CCRF-CEM cells [4]): do not potentiate

Structure (SMILES): Nc1nc2c(ncn2[C@H]2C[C@H](O)[C@@H](CO)O2)c(=O)[nH]1 [deoxyguanosine]
Potentiation of [3H]MTX uptake at 30 min (CCRF-CEM cells [4]): do not potentiate
